The target in the test is T1, human mGluR5 (Homo sapiens, UniProt P41594).
T1 construct: expressed in transfected cells; host or cells: HEK cells, H10H cell line
T1 sequence (P41594 21-1212): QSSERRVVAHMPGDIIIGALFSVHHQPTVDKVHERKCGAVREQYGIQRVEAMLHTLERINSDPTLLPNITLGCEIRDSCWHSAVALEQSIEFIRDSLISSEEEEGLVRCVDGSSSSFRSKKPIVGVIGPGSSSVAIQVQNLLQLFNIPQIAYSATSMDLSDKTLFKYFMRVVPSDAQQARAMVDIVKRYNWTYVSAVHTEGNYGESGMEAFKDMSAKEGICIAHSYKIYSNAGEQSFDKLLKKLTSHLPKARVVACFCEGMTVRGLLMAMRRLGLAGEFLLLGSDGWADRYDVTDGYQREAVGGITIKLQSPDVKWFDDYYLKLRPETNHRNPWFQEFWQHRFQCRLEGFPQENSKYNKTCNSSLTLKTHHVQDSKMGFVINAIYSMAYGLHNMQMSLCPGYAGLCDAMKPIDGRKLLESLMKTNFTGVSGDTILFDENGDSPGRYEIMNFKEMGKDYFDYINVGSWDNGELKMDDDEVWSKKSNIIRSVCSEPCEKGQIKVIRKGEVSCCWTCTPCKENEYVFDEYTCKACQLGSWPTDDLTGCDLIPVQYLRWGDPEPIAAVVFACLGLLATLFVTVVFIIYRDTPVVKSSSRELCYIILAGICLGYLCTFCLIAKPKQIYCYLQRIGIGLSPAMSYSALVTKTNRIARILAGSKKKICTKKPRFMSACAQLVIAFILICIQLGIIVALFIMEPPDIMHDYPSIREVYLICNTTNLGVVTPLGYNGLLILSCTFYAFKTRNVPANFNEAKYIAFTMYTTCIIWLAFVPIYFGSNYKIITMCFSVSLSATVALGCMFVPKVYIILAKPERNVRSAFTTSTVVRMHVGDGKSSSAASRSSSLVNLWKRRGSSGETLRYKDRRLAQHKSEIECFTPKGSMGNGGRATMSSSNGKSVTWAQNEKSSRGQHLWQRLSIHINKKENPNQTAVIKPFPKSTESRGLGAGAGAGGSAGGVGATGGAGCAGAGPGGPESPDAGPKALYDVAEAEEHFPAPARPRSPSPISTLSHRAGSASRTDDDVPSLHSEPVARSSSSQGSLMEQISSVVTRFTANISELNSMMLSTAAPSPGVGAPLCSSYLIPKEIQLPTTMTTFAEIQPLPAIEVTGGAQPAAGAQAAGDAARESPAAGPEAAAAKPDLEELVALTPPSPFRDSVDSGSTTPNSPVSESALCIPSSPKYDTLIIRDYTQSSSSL
The experiment in a line: Potentiation of glutamate response in HEK cells transfected with human mGluR5 (H10H cell line), Ca2+ fluorescence, FDSS. In kind it is cell-based. The settings on record: read-out: hmGluR5 EC50 (H10H cell line). On the procedure: Human embryonic kidney (HEK) cells transfected with rat mGluR5 were plated in clear bottom assay plates for assay in a Functional Drug Screening System (FDSS). In the alternative assay, HEK cells transfected with human mGluR5 (H10H cell line) were plated for assay in the FDSS. […] The cells were loaded with a Ca^2+-sensitive fluorescent dye (e.g., Fluo-4), and the plates were washed and placed in the FDSS instrument. After establishment of a fluorescence baseline for twelve seconds, the compounds of the present invention were added to the cells, and the response in cells was measured. Five minutes later, an mGluR5 agonist (e.g., glutamate, 3,5-dihydroxyphenylglycine, or quisqualate) was added to the cells, and the response of the cells was measured. Potentiation of the agonist response of mGluR5 by the compounds in the present invention was observed as an increase in response to non-maximal concentrations of agonist (here, glutamate) in the presence of compound compared to the response to agonist in the absence of compound.
The above described assay operated in two modes. In the first mode, a range of concentrations of the present compounds were added to cells, followed by a single fixed concentration of agonist. If a compound acted as a potentiator, an EC50 value for potentiation and a maximum extent of potentiation by the compound at this concentration of agonist was determined by non-linear curve fitting. In the second mode, several fixed concentrations of the present compounds were added to various wells on a plate, followed by a range of concentrations of agonist for each concentration of present compound; the EC50 values for the agonist at each concentration of compound were determined by non-linear curve fitting. A decrease in the EC50 value of the agonist with increasing concentrations of the present compounds (a leftward shift of the agonist concentration-response curve) is an indication of the degree of mGluR5 potentiation at a given concentration of the present compound. An increase in the EC50 value of the agonist with increasing concentrations of the present compounds (a rightward shift of the agonist concentration-response curve) is an indication of the degree of mGluR5 antagonism at a given concentration of the present compound. The second mode also indicates whether the present compounds also affect the maximum response to mGluR5 to agonists.
The term EC50 denotes the midpoint of the concentration-response curve. On to `C[C@@H](NC(=O)c1ccc(COc2cncc(C(F)(F)F)c2)nc1)C1CCCCC1`, for which the EC50 was more than 10 µM. In the case of `C[C@@H](NC(=O)c1ccc(COc2cncnc2)nc1)C(C)(C)C`, the EC50 is more than 10 µM. With `O=C(NC1CC(O)(C(F)(F)F)C1)c1ccc(COc2cccc(F)c2)nc1` (stereo not drawn) [drawing 173], the EC50 is more than 10 µM. `C[C@@H](NC(=O)c1ccc(COc2cncc(F)c2)nc1)C1CCCCC1`: the EC50 was 2.7 µM. Take `C[C@@H](NC(=O)c1ccc(COc2cncc(F)c2)nc1)C(C)(C)C`: the EC50 was more than 10 µM. For the compound `CC(NC(=O)c1ccc(COc2cccc(F)c2)nc1)C1CCCCO1` (stereo not drawn), the EC50 amounted to 1.9 µM. Regarding `C[C@@H](NC(=O)c1ccc(COc2cncc(Cl)c2)nc1)C(C)(C)C`, the EC50 was more than 10 µM.

`CC(NC(=O)c1ccc(COc2cccc(F)c2)nc1)C(C)(C)O` (stereo not drawn): the EC50 was more than 10 µM. As for `O=C(N[C@@H]1C[C@@H]2CC[C@H]1C2)c1ccc(COc2cccc(F)c2)nc1`, the EC50 was more than 10 µM. For `O=C(N[C@H]1C[C@@H]2CC[C@H]1C2)c1ccc(COc2cccc(F)c2)nc1`, the EC50 was found to be 0.55 µM. For `O=C(N[C@H]1C[C@H]2CC[C@@H]1C2)c1ccc(COc2cccc(F)c2)nc1`, the EC50 came to 0.73 µM. For `CC1(CCNC(=O)c2ccc(COc3cccc(F)c3)nc2)COC1`, the concentration for a half-maximal effect (EC50) is more than 10 µM.

For the origin of these results see patent publication US8969389B2, “Substituted 6-methylnicotinamides as mGluR5 positive allosteric modulators” (Vanderbilt University, priority 2010, dated 2015).
